{
  "source": "paper PMC12420824",
  "about": "“Discovery of a selective alpha-kinase 1 inhibitor for the rare genetic disease ROSAH syndrome” (Nature Communications, 2025)",
  "key": {"[1]": {"assay": "28 day GLP toxicology study", "type": "in vivo", "conditions": "rats"}, "STK22D/TSSK1": {"target": "STK22D/TSSK1 (Homo sapiens, UniProt Q9BXA7)", "sequence (Q9BXA7 whole entry)": "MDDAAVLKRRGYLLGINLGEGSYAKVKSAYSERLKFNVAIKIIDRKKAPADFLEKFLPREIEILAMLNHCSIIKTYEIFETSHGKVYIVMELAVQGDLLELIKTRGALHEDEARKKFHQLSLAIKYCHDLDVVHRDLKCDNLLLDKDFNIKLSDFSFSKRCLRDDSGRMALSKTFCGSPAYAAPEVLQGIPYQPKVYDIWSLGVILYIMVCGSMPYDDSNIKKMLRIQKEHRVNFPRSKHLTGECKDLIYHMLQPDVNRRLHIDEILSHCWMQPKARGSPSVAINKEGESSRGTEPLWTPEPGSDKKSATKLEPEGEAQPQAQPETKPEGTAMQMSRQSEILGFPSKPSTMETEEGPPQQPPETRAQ", "assay": "biochemical", "conditions": "read-out: % Enzyme Activity (relative to DMSO control), 10 uM", "source_text": "(§1) Additionally, a 10-dose dilution series of staurosporine and other enzyme-appropriate compounds were included as positive control inhibitors."}, "TAOK3/JIK": {"target": "TAOK3/JIK (Homo sapiens, UniProt Q9H2K8)", "sequence (Q9H2K8 whole entry)": "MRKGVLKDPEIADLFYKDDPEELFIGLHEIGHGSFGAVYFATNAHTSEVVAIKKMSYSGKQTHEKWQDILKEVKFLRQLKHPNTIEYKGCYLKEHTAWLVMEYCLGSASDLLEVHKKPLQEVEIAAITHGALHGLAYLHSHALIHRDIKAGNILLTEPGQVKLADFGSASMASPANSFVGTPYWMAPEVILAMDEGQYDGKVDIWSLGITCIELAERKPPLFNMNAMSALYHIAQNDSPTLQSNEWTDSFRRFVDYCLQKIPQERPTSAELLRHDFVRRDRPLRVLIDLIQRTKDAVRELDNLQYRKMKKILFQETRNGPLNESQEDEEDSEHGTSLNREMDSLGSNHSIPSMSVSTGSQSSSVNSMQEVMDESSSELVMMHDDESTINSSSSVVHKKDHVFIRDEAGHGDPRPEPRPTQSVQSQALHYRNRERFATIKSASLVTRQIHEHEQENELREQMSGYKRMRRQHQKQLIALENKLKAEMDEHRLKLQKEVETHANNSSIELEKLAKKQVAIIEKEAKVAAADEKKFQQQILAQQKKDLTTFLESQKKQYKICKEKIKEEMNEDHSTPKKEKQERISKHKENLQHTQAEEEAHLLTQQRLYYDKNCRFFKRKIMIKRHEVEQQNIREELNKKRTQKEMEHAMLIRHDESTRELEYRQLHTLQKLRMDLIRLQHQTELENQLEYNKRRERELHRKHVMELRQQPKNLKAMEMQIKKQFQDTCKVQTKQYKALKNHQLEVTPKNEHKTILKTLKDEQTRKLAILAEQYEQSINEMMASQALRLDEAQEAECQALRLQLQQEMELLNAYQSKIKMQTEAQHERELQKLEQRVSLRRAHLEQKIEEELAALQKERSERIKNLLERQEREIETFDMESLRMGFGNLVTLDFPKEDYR", "assay": "HotSpot kinase assay", "conditions": "read-out: % Enzyme Activity (relative to DMSO control), 10 uM"}, "CAMK2b": {"target": "CAMK2b (Homo sapiens, UniProt Q13554)", "assay": "HotSpot kinase assay", "conditions": "read-out: % Enzyme Activity (relative to DMSO control), 10 uM", "source_text": "as §1"}, "CAMK1b": {"target": "CAMK1b (Homo sapiens, UniProt Q6P2M8)", "assay": "HotSpot kinase assay", "conditions": "read-out: % Enzyme Activity (relative to DMSO control), 10 uM"}, "CAMK1g": {"target": "CAMK1g (Homo sapiens, UniProt Q96NX5)", "assay": "HotSpot kinase assay", "conditions": "read-out: % Enzyme Activity (relative to DMSO control), 10 uM", "source_text": "as §1"}, "ULK1": {"target": "ULK1 (Homo sapiens, UniProt O75385)", "assay": "HotSpot kinase assay", "conditions": "read-out: % Enzyme Activity (relative to DMSO control), 10 uM", "source_text": "as §1"}, "PKN2/PRK2": {"target": "PKN2/PRK2 (Homo sapiens, UniProt Q16513)", "assay": "HotSpot kinase assay", "conditions": "read-out: % Enzyme Activity (relative to DMSO control), 10 uM", "source_text": "as §1"}, "DMPK2": {"target": "DMPK2 (Homo sapiens, UniProt Q6DT37)", "assay": "HotSpot kinase assay", "conditions": "read-out: % Enzyme Activity (relative to DMSO control), 10 uM", "source_text": "as §1"}, "P38a/MAPK14": {"target": "P38a/MAPK14 (Homo sapiens, UniProt Q16539)", "assay": "HotSpot kinase assay", "conditions": "read-out: % Enzyme Activity (relative to DMSO control), 10 uM", "source_text": "as §1"}, "KDR/VEGFR2": {"target": "KDR/VEGFR2 (Homo sapiens, UniProt P35968)", "sequence (P35968 20-1356)": "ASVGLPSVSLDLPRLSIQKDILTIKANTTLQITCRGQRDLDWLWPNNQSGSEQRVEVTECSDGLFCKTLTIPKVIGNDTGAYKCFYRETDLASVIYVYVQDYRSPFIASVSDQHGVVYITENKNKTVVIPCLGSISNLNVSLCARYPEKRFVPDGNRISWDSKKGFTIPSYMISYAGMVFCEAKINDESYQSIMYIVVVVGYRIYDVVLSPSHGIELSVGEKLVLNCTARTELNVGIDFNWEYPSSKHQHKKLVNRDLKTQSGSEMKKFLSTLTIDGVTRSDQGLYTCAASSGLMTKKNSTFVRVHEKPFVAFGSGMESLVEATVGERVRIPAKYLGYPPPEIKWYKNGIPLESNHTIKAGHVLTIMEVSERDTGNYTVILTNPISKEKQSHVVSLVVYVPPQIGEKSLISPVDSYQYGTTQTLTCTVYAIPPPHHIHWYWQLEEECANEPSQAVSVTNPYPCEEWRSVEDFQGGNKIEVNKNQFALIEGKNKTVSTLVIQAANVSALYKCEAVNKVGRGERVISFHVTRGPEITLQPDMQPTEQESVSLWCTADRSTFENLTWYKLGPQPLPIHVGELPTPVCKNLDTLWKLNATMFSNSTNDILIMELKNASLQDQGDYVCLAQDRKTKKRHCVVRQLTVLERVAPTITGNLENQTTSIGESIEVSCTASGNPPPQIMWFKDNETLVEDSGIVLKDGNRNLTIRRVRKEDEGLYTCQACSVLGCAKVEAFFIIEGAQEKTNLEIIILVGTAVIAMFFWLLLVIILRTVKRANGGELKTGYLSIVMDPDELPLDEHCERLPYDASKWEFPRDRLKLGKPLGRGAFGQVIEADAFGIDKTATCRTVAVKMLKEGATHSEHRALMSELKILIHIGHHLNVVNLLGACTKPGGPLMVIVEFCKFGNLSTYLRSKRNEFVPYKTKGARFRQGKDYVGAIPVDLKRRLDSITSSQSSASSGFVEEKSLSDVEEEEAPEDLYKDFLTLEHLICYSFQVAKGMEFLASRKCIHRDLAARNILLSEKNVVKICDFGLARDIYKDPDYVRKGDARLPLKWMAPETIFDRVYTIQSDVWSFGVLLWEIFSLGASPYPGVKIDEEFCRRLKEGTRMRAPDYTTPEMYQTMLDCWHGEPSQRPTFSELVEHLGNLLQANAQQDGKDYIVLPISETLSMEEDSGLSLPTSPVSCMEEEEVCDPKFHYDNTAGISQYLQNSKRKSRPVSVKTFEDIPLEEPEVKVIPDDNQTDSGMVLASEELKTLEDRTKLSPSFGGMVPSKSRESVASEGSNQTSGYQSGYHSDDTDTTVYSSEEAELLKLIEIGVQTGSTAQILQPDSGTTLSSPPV", "assay": "HotSpot kinase assay", "conditions": "read-out: % Enzyme Activity (relative to DMSO control), 10 uM"}, "KSR2": {"target": "KSR2 (Homo sapiens, UniProt Q6VAB6)", "sequence (Q6VAB6 whole entry)": "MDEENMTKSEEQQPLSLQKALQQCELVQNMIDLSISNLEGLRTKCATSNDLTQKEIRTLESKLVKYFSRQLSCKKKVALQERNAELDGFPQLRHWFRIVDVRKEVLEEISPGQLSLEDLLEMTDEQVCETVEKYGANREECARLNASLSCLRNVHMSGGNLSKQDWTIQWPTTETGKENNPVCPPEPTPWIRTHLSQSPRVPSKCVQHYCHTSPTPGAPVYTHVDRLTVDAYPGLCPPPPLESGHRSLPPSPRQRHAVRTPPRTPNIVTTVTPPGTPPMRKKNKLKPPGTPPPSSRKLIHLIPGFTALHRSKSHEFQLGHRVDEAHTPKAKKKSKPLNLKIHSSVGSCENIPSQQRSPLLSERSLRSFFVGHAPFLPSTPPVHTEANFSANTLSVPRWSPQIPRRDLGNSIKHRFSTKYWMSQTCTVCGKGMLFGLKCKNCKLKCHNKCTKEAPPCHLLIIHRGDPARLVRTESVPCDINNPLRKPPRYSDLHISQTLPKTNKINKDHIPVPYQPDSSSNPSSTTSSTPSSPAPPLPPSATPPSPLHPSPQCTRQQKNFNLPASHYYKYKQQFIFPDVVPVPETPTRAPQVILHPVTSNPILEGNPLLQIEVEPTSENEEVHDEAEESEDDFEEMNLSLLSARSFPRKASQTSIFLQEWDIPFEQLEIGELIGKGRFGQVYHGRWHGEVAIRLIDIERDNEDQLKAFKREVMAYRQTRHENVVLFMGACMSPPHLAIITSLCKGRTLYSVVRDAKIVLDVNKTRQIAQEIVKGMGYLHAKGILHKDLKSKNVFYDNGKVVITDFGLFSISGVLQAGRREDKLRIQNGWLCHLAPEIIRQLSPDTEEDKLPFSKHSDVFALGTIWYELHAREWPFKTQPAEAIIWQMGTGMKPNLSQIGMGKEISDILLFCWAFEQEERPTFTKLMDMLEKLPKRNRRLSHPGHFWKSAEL", "assay": "HotSpot kinase assay", "conditions": "read-out: % Enzyme Activity (relative to DMSO control), 10 uM", "source_text": "as §1"}, "MAST3": {"target": "MAST3 (Homo sapiens, UniProt O60307)", "assay": "HotSpot kinase assay", "conditions": "read-out: % Enzyme Activity (relative to DMSO control), 10 uM", "source_text": "as §1"}, "AMPK (A2/B1/G2)": {"target": "AMPK (A2/B1/G2) (Homo sapiens, UniProt P54646)", "assay": "HotSpot kinase assay", "conditions": "read-out: % Enzyme Activity (relative to DMSO control), 10 uM", "source_text": "as §1"}, "AMPK(A2/B2/G2)": {"target": "AMPK(A2/B2/G2) (Homo sapiens, UniProt P54646)", "assay": "HotSpot kinase assay", "conditions": "read-out: % Enzyme Activity (relative to DMSO control), 10 uM", "source_text": "as §1"}, "BRAF": {"target": "BRAF (Homo sapiens, UniProt P15056)", "assay": "HotSpot kinase assay", "conditions": "read-out: % Enzyme Activity (relative to DMSO control), 10 uM"}, "PAK6": {"target": "PAK6 (Homo sapiens, UniProt Q9NQU5)", "assay": "HotSpot kinase assay", "conditions": "read-out: % Enzyme Activity (relative to DMSO control), 10 uM", "source_text": "as §1"}, "SGK3/SGKL": {"target": "SGK3/SGKL (Homo sapiens, UniProt Q96BR1)", "assay": "HotSpot kinase assay", "conditions": "read-out: % Enzyme Activity (relative to DMSO control), 10 uM", "source_text": "as §1"}, "STK38L/NDR2": {"target": "STK38L/NDR2 (Homo sapiens, UniProt Q9Y2H1)", "assay": "HotSpot kinase assay", "conditions": "read-out: % Enzyme Activity (relative to DMSO control), 10 uM", "source_text": "as §1"}, "EIF2AK1": {"target": "EIF2AK1 (Homo sapiens, UniProt Q9BQI3)", "assay": "HotSpot kinase assay", "conditions": "read-out: % Enzyme Activity (relative to DMSO control), 10 uM", "source_text": "as §1"}, "ERK2/MAPK1": {"target": "ERK2/MAPK1 (Homo sapiens, UniProt P28482)", "assay": "HotSpot kinase assay", "conditions": "read-out: % Enzyme Activity (relative to DMSO control), 10 uM"}, "WNK3": {"target": "WNK3 (Homo sapiens, UniProt Q9BYP7)", "assay": "HotSpot kinase assay", "conditions": "read-out: % Enzyme Activity (relative to DMSO control), 10 uM"}, "SRMS": {"target": "SRMS (Homo sapiens, UniProt Q9H3Y6)", "assay": "HotSpot kinase assay", "conditions": "read-out: % Enzyme Activity (relative to DMSO control), 10 uM"}, "CAMKK2": {"target": "CAMKK2 (Homo sapiens, UniProt Q96RR4)", "assay": "HotSpot kinase assay", "conditions": "read-out: % Enzyme Activity (relative to DMSO control), 10 uM", "source_text": "as §1"}, "GRK1": {"target": "GRK1 (Homo sapiens, UniProt Q15835)", "assay": "HotSpot kinase assay", "conditions": "read-out: % Enzyme Activity (relative to DMSO control), 10 uM", "source_text": "as §1"}, "TSSK2": {"target": "TSSK2 (Homo sapiens, UniProt Q96PF2)", "sequence (Q96PF2 whole entry)": "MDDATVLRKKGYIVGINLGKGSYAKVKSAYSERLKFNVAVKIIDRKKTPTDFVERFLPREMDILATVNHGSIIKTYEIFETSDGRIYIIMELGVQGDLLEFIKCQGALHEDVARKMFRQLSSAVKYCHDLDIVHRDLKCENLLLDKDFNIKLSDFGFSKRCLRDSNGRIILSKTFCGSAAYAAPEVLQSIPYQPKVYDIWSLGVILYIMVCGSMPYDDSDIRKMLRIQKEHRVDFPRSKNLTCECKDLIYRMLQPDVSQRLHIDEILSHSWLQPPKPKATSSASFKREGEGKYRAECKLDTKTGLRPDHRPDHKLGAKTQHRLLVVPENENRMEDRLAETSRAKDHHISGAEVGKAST", "assay": "HotSpot kinase assay", "conditions": "read-out: % Enzyme Activity (relative to DMSO control), 10 uM", "source_text": "as §1"}, "CDK7/cyclin H": {"target": "CDK7/cyclin H (Homo sapiens, UniProt P50613)", "assay": "HotSpot kinase assay", "conditions": "read-out: % Enzyme Activity (relative to DMSO control), 10 uM", "source_text": "as §1"}, "IR": {"target": "IR (Homo sapiens, UniProt P06213)", "assay": "HotSpot kinase assay", "conditions": "read-out: % Enzyme Activity (relative to DMSO control), 10 uM", "source_text": "as §1"}, "PKG2/PRKG2": {"target": "PKG2/PRKG2 (Homo sapiens, UniProt Q13237)", "assay": "HotSpot kinase assay", "conditions": "read-out: % Enzyme Activity (relative to DMSO control), 10 uM", "source_text": "as §1"}, "JAK2": {"target": "JAK2 (Homo sapiens, UniProt O60674)", "assay": "HotSpot kinase assay", "conditions": "read-out: % Enzyme Activity (relative to DMSO control), 10 uM"}, "PLK2": {"target": "PLK2 (Homo sapiens, UniProt Q9NYY3)", "assay": "HotSpot kinase assay", "conditions": "read-out: % Enzyme Activity (relative to DMSO control), 10 uM"}, "MEK5": {"target": "MEK5 (Homo sapiens, UniProt Q13163)", "assay": "HotSpot kinase assay", "conditions": "read-out: % Enzyme Activity (relative to DMSO control), 10 uM", "source_text": "as §1"}, "CDK1/cyclin A": {"target": "CDK1/cyclin A (Homo sapiens, UniProt P06493)", "assay": "HotSpot kinase assay", "conditions": "read-out: % Enzyme Activity (relative to DMSO control), 10 uM", "source_text": "as §1"}, "STK32C/YANK3": {"target": "STK32C/YANK3 (Homo sapiens, UniProt Q86UX6)", "sequence (Q86UX6 whole entry)": "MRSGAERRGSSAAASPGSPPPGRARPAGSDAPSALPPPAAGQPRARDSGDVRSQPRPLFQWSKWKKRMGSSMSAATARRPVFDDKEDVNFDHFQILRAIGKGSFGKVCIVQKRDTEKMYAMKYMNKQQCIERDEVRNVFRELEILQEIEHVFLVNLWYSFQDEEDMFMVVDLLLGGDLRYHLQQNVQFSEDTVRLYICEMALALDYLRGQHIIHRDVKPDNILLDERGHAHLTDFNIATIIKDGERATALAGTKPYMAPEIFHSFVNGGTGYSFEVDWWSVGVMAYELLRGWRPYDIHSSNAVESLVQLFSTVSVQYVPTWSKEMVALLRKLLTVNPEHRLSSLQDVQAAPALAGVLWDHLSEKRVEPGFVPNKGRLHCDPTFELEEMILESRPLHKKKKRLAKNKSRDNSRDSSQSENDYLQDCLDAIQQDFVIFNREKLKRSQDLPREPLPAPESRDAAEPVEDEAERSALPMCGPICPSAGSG", "assay": "HotSpot kinase assay", "conditions": "read-out: % Enzyme Activity (relative to DMSO control), 10 uM"}, "ULK3": {"target": "ULK3 (Homo sapiens, UniProt Q6PHR2)", "assay": "HotSpot kinase assay", "conditions": "read-out: % Enzyme Activity (relative to DMSO control), 10 uM"}, "BRSK1": {"target": "BRSK1 (Homo sapiens, UniProt Q8TDC3)", "assay": "HotSpot kinase assay", "conditions": "read-out: % Enzyme Activity (relative to DMSO control), 10 uM", "source_text": "as §1"}, "GRK5": {"target": "GRK5 (Homo sapiens, UniProt P34947)", "assay": "HotSpot kinase assay", "conditions": "read-out: % Enzyme Activity (relative to DMSO control), 10 uM"}, "FAK/PTK2": {"target": "FAK/PTK2 (Homo sapiens, UniProt Q05397)", "assay": "HotSpot kinase assay", "conditions": "read-out: % Enzyme Activity (relative to DMSO control), 10 uM", "source_text": "as §1"}, "CLK4": {"target": "CLK4 (Homo sapiens, UniProt Q9HAZ1)", "sequence (Q9HAZ1 whole entry)": "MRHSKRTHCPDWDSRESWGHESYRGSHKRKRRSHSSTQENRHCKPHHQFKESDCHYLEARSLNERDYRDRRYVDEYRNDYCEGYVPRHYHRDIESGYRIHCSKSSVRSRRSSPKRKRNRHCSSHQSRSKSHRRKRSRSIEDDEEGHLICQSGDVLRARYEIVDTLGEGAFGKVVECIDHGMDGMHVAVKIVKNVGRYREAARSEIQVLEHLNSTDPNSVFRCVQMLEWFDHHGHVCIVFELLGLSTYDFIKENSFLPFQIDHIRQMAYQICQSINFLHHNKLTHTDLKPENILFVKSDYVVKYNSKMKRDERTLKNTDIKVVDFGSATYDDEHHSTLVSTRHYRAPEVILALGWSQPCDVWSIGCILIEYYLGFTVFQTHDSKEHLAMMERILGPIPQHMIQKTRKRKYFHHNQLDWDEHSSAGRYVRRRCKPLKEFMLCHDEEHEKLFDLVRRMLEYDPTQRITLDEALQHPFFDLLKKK", "assay": "HotSpot kinase assay", "conditions": "read-out: % Enzyme Activity (relative to DMSO control), 10 uM", "source_text": "as §1"}, "IKKb/IKBKB": {"target": "IKKb/IKBKB (Homo sapiens, UniProt O14920)", "assay": "HotSpot kinase assay", "conditions": "read-out: % Enzyme Activity (relative to DMSO control), 10 uM"}},
  "data": [
    {"smiles": "C#C[C@@](C)(c1ccc(Cl)cc1)c1csc(NC(=O)c2c(F)cc(N3CCNCC3)cc2F)n1", "note": "(stereo in doubt) [DF-003]", "values": [
      {"measurement": "general immunosuppression", "setting": "[1]", "result": "no general immunosuppression was observed"},
      {"measurement": "remaining activity at 10 µM", "setting": "STK22D/TSSK1", "result": 94.2, "unit": "%"},
      {"measurement": "remaining activity at 10 µM", "setting": "TAOK3/JIK", "result": 21.7, "unit": "%"},
      {"measurement": "remaining activity at 10 µM", "setting": "CAMK2b", "result": 30.3, "unit": "%"},
      {"measurement": "remaining activity at 10 µM", "setting": "CAMK1b", "result": 36.7, "unit": "%"},
      {"measurement": "remaining activity at 10 µM", "setting": "CAMK1g", "result": 56.6, "unit": "%"},
      {"measurement": "remaining activity at 10 µM", "setting": "ULK1", "result": 56.8, "unit": "%"},
      {"measurement": "remaining activity at 10 µM", "setting": "PKN2/PRK2", "result": 61.3, "unit": "%"},
      {"measurement": "remaining activity at 10 µM", "setting": "DMPK2", "result": 74, "unit": "%"},
      {"measurement": "remaining activity at 10 µM", "setting": "P38a/MAPK14", "result": 74.6, "unit": "%"},
      {"measurement": "remaining activity at 10 µM", "setting": "KDR/VEGFR2", "result": 76, "unit": "%"},
      {"measurement": "remaining activity at 10 µM", "setting": "KSR2", "result": 79.5, "unit": "%"},
      {"measurement": "remaining activity at 10 µM", "setting": "MAST3", "result": 82.3, "unit": "%"},
      {"measurement": "remaining activity at 10 µM", "setting": "AMPK (A2/B1/G2)", "result": 82.9, "unit": "%"},
      {"measurement": "remaining activity at 10 µM", "setting": "AMPK(A2/B2/G2)", "result": 83, "unit": "%"},
      {"measurement": "remaining activity at 10 µM", "setting": "BRAF", "result": 84.1, "unit": "%"},
      {"measurement": "remaining activity at 10 µM", "setting": "PAK6", "result": 84.2, "unit": "%"},
      {"measurement": "remaining activity at 10 µM", "setting": "SGK3/SGKL", "result": 84.3, "unit": "%"},
      {"measurement": "remaining activity at 10 µM", "setting": "STK38L/NDR2", "result": 90.6, "unit": "%"},
      {"measurement": "remaining activity at 10 µM", "setting": "EIF2AK1", "result": 91.9, "unit": "%"},
      {"measurement": "remaining activity at 10 µM", "setting": "ERK2/MAPK1", "result": 91.9, "unit": "%"},
      {"measurement": "remaining activity at 10 µM", "setting": "WNK3", "result": 95.4, "unit": "%"},
      {"measurement": "remaining activity at 10 µM", "setting": "SRMS", "result": 97.9, "unit": "%"},
      {"measurement": "remaining activity at 10 µM", "setting": "CAMKK2", "result": 98.9, "unit": "%"},
      {"measurement": "remaining activity at 10 µM", "setting": "GRK1", "result": 99.3, "unit": "%"},
      {"measurement": "remaining activity at 10 µM", "setting": "TSSK2", "result": 101, "unit": "%"},
      {"measurement": "remaining activity at 10 µM", "setting": "CDK7/cyclin H", "result": 102, "unit": "%"},
      {"measurement": "remaining activity at 10 µM", "setting": "IR", "result": 104, "unit": "%"},
      {"measurement": "remaining activity at 10 µM", "setting": "PKG2/PRKG2", "result": 105, "unit": "%"},
      {"measurement": "remaining activity at 10 µM", "setting": "JAK2", "result": 108, "unit": "%"},
      {"measurement": "remaining activity at 10 µM", "setting": "PLK2", "result": 109, "unit": "%"},
      {"measurement": "remaining activity at 10 µM", "setting": "MEK5", "result": 109, "unit": "%"},
      {"measurement": "remaining activity at 10 µM", "setting": "CDK1/cyclin A", "result": 109, "unit": "%"},
      {"measurement": "remaining activity at 10 µM", "setting": "STK32C/YANK3", "result": 114, "unit": "%"},
      {"measurement": "remaining activity at 10 µM", "setting": "ULK3", "result": 114, "unit": "%"},
      {"measurement": "remaining activity at 10 µM", "setting": "BRSK1", "result": 116, "unit": "%"},
      {"measurement": "remaining activity at 10 µM", "setting": "GRK5", "result": 117, "unit": "%"},
      {"measurement": "remaining activity at 10 µM", "setting": "FAK/PTK2", "result": 128, "unit": "%"},
      {"measurement": "remaining activity at 10 µM", "setting": "CLK4", "result": 128, "unit": "%"},
      {"measurement": "remaining activity at 10 µM", "setting": "IKKb/IKBKB", "result": 152, "unit": "%"}
    ]}
  ]
}
